Laboratory results: ChEMBL document CHEMBL2429737, “Synthesis and study of benzothiazole conjugates in the control of cell proliferation by modulating Ras/MEK/ERK-dependent pathway in MCF-7 cells” (Bioorg Med Chem Lett, 2013)
Activity calls are given as the source filed them. No cut-off for these calls is given here.

Legend:
[1] = system: MDA-MB-231; experiment: Cytotoxicity against human MDA-MB-231 cells after 72 hrs by MTT assay; assay type: functional, cell-based; conditions: MDA-MB-231, 72 h
[2] = system: MDA-MB-231; experiment: Cytotoxicity against human MDA-MB-231 cells after 48 hrs by SRB assay; assay type: functional; conditions: MDA-MB-231, 48 h
[3] = system: MCF-10A; experiment: Selectivity index, ratio of IC50 for human MCF10A cells to IC50 for human MDA-MB-231 cells; assay type: functional
[4] = system: MCF7; experiment: Cytotoxicity against human MCF7 cells after 48 hrs by SRB assay; assay type: functional; conditions: MCF7, 48 h
[5] = system: MCF7; experiment: Selectivity index, ratio of IC50 for human MCF10A cells to IC50 for human MCF7 cells; assay type: functional
[6] = Cytotoxicity against HEK cells at 0.25 to 64 ug after 72 hrs by MTT assay; assay type: cell-based; conditions: human, hek293, 72 h
[7] = system: MCF-10A; experiment: Cytotoxicity against human MCF10A cells after 72 hrs by MTT assay; assay type: cell-based
[8] = system: MCF7; experiment: Cytotoxicity against human MCF7 cells after 72 hrs by MTT assay; assay type: functional, cell-based; conditions: MCF7, 72 h
[9] = system: MCF7; experiment: Down regulation of integrin alphaVbeta3 protein expression in human MCF7 cells at 2 to 4 uM after 24 hrs by Western blotting analysis
[10] = system: MCF7; experiment: Down regulation of VEGF protein expression in human MCF7 cells at 2 to 4 uM after 24 hrs by Western blotting analysis; assay type: functional, cell-based
[11] = system: MCF7; experiment: Down regulation of Ras protein expression in human MCF7 cells at 2 to 4 uM after 24 hrs by Western blotting analysis; assay type: functional, cell-based
[12] = system: MCF7; experiment: Cytotoxicity against human MCF7 cells at 4 uM after 72 hrs by MTT assay; assay type: functional
[13] = system: MCF7; experiment: Down regulation of MEK1 protein expression in human MCF7 cells at 2 to 4 uM after 24 hrs by Western blotting analysis; assay type: functional, cell-based
[14] = molecular target: Mitogen-activated protein kinase; ERK1/ERK2 (Homo sapiens) (UniProt P27361+P28482); experiment: Inhibition of ERK1/2 phosphorylation in human MCF7 cells at 2 to 4 uM after 24 hrs by Western blotting analysis; assay type: cell-based
Sequence of Mitogen-activated protein kinase; ERK1/ERK2 (Homo sapiens) (P27361 whole entry, looked up): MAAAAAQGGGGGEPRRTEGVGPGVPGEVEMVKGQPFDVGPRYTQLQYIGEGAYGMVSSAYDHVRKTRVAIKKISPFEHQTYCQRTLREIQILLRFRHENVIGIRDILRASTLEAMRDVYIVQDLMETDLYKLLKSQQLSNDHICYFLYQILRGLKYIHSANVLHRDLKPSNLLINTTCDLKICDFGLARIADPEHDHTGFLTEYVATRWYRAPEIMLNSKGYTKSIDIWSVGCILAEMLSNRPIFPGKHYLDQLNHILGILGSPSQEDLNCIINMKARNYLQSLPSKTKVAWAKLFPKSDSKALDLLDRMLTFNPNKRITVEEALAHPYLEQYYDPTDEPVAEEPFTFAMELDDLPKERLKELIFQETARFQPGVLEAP
Sequence of Mitogen-activated protein kinase; ERK1/ERK2 (Homo sapiens) (P28482 whole entry, looked up): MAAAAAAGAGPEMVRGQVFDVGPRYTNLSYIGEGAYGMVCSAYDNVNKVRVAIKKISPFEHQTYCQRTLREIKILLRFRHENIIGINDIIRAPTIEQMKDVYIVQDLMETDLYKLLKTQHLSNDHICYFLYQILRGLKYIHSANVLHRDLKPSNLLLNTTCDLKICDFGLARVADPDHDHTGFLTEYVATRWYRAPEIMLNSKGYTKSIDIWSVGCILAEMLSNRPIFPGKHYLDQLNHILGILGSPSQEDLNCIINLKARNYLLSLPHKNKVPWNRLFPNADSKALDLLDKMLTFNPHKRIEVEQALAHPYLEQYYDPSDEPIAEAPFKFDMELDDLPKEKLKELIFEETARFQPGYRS

[15] = system: MCF7; experiment: Induction of apoptosis in human MCF7 cells assessed as increase in caspase-9 activity at 2 uM after 24 hrs by fluorescence assay

SMILES	IC50 [1]	GI50 [2]	Ratio IC50 [3]	GI50 [4]	Ratio IC50 [5]	Activity [6]	IC50 [7]	IC50 [8]	Activity [9]	Activity [10]	Activity [11]	Activity [12]	Activity [13]	inhibition [14]	Activity [15]
COc1ccc(-c2ccc(C)n2-c2ccc(-c3nc4ccc(OC)cc4s3)cc2)cc1	12.7 µM	4.12 µM	2.23	3090 nM	6.36	Non-toxic	30.6 µM	4830 nM							
Cc1ccc(-c2ccc(C)n2-c2ccc(-c3nc4ccc(F)cc4s3)cc2)cc1	16.7 µM	3.14 µM	2.01	2150 nM	11.3	Non-toxic	33.6 µM	2970 nM							
COc1ccc2nc(-c3ccc(-n4c(C)ccc4-c4ccc(F)cc4)cc3)sc2c1	13.8 µM	4.06 µM	2.77	2480 nM	13.67	Non-toxic	38.3 µM	2800 nM							
COc1ccc(-c2ccc(C)n2-c2ccc(-c3nc4ccc(F)cc4s3)cc2)cc1	19 µM	3.07 µM	1.98	2120 nM	14.85	Non-toxic	37.8 µM	2540 nM							
Cc1ccc(-c2ccc(C)n2-c2ccc(-c3nc4ccccc4s3)cc2)cc1	17.8 µM	4.4 µM	1.71	2500 nM	9.1	Non-toxic	30.6 µM	3100 nM							
COc1ccc2nc(-c3ccc(-n4c(C)ccc4-c4ccc(C)cc4)cc3)sc2c1	20.5 µM	4.01 µM	1.65	2570 nM	11.92	Non-toxic	34 µM	2850 nM							
COc1cc2nc(-c3ccc(-n4c(C)ccc4-c4ccc(F)cc4)cc3)sc2c(OC)c1OC	13.1 µM	3.94 µM	3.29	2670 nM	14.83	Non-toxic	43.2 µM	2910 nM							
COc1ccc2nc(-c3ccc(-n4c(C)ccc4-c4cc(OC)c(OC)c(OC)c4)cc3)sc2c1	12.9 µM	1.76 µM	2.92	920 nM	24.84	Non-toxic	37.8 µM	1520 nM	Active	Active	Active	50%	Active	Active	Active
COc1cc(-c2ccc(C)n2-c2ccc(-c3nc4ccc(F)cc4s3)cc2)cc(OC)c1OC	15.4 µM	3 µM	2.6	1410 nM	16.93	Non-toxic	40 µM	2360 nM							
COc1ccc(-c2ccc(C)n2-c2ccc(-c3nc4ccccc4s3)cc2)cc1	14.8 µM	3.99 µM	2.44	2780 nM	11.13	Non-toxic	36.3 µM	3260 nM							
Cc1ccc(-c2ccc([N+](=O)[O-])cc2)n1-c1ccc(-c2nc3ccc(F)cc3s2)cc1	17 µM	1.67 µM	2.29	918 nM	16.4	Non-toxic	39 µM	2370 nM							
COc1cc2nc(-c3ccc(-n4c(C)ccc4-c4ccc(C)cc4)cc3)sc2c(OC)c1OC	12.3 µM	4.14 µM	3.45	2910 nM	13.66	Non-toxic	42.5 µM	3110 nM							
COc1cc(-c2ccc(C)n2-c2ccc(-c3nc4ccccc4s3)cc2)cc(OC)c1OC	16 µM	3.45 µM	2.42	2340 nM	8.87	Non-toxic	38.8 µM	4370 nM							
COc1cc([C@@H]2c3cc4c(cc3[C@@H](O[C@@H]3O[C@@H]5CO[C@@H](C)O[C@H]5[C@H](O)[C@H]3O)[C@H]3COC(=O)[C@H]23)OCO4)cc(OC)c1O [ETOPOSIDE]	1.5 µM	1.67 µM	24.17	870 nM	30.21		36.3 µM	1200 nM	Active	Active	Active		Active	Active	Active
COc1ccc(-c2ccc(C)n2-c2ccc(-c3nc4cc(OC)c(OC)c(OC)c4s3)cc2)cc1	12.5 µM	2.24 µM	3.5	1230 nM	19.945	Non-toxic	43.9 µM	2200 nM				50%			
Cc1ccc(-c2ccc(F)cc2)n1-c1ccc(-c2nc3ccc(F)cc3s2)cc1	14.1 µM	3.03 µM	2.68	1790 nM	13.48	Non-toxic	37.8 µM	2800 nM							
Cc1ccc(-c2ccc([N+](=O)[O-])cc2)n1-c1ccc(-c2nc3ccccc3s2)cc1	12.1 µM	3.9 µM	3.2	2540 nM	12.47	Non-toxic	38.8 µM	3110 nM							
Cc1ccc(-c2ccc(F)cc2)n1-c1ccc(-c2nc3ccccc3s2)cc1	11.8 µM	4.34 µM	3.4	2620 nM	12.57	Non-toxic	40 µM	3180 nM							
COc1ccc2nc(-c3ccc(-n4c(C)ccc4-c4ccc([N+](=O)[O-])cc4)cc3)sc2c1	12.7 µM	4.56 µM	2.74	3170 nM	25.3	Non-toxic	34.9 µM								
